Results on 6 compounds are retold here after ChEMBL document CHEMBL1129999, “Modeling, chemistry, and biology of the benzolactam analogues of indolactam V (ILV). 2. Identification of the binding site of the benzolactams in the CRD2 activator-binding domain of PKCdelta and discovery of an ILV analogue of improved isozyme selectivity” (J Med Chem, 1997).

The target of assay [1] is Protein kinase C alpha type (Homo sapiens, UniProt P17252). The assay is described as follows: Displacement of [3H]- PDBu from recombinant PKC alpha expressed in baculovirus. In general terms: Loss of bound radioactivity is the signal in a displacement assay; it reports binding, not function.
In assay [2] the target is T1, Protein kinase C delta type (Homo sapiens, UniProt Q05655). The assay is described as follows: Displacement of [3H]- PDBu from recombinant PKC delta expressed in baculovirus.
Target sequence in this assay (Q05655 whole entry): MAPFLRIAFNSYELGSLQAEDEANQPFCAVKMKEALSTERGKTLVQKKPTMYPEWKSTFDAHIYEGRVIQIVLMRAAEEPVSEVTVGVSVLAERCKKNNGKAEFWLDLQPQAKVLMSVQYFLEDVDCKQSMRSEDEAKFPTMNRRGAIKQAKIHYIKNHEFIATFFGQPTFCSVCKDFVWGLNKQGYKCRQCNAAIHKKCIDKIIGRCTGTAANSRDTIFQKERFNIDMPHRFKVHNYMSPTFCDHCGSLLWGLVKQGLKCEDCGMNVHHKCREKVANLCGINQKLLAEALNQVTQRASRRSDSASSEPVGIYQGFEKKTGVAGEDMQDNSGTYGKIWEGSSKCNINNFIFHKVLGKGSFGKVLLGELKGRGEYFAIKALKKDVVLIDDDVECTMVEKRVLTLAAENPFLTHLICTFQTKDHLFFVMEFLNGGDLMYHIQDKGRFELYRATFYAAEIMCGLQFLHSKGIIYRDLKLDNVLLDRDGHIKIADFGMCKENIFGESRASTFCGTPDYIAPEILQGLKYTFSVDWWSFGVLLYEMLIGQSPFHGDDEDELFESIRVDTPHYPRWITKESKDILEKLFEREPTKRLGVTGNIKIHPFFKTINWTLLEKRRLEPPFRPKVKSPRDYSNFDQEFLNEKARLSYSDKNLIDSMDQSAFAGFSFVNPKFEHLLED
Assay [3] has as its target T2, Protein kinase C epsilon type (Homo sapiens, UniProt Q02156).
T2 sequence (Q02156 whole entry): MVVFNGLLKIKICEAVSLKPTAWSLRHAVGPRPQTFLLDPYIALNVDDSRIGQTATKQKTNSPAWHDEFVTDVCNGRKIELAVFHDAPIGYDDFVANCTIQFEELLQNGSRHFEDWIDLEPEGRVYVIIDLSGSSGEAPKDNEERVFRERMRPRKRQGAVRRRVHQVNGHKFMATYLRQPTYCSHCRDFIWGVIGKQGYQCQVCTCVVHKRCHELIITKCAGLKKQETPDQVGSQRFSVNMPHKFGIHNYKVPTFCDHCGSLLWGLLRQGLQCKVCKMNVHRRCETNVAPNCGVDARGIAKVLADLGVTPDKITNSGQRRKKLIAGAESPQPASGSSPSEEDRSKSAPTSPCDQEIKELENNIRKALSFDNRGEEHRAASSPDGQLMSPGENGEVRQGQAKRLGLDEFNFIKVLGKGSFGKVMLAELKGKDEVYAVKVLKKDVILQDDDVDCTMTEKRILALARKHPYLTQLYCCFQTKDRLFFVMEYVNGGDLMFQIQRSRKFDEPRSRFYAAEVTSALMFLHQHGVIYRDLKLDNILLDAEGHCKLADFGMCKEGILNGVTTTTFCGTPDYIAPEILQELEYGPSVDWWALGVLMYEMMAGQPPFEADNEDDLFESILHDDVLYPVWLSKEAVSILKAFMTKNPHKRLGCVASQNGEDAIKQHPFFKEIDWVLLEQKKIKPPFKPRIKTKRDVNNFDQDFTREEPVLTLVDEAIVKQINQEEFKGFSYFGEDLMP
The assay is described as follows: Displacement of [3H]- PDBu from recombinant PKC epsilon expressed in baculovirus.

The target of assay [4] is Protein kinase C gamma type (Homo sapiens, UniProt P05129). The assay is described as follows: Displacement of [3H]- PDBu from recombinant PKC gamma expressed in baculovirus.
The target of assay [5] is Protein kinase C beta type (Homo sapiens, UniProt P05771). The assay is described as follows: Displacement of [3H]- PDBu from recombinant PKC beta expressed in baculovirus.
Assay [6] addresses T1, Protein kinase C delta type. The assay is described as follows: Inhibition of [3H]PDBu binding to PKC delta mutant Gln 27-Gly (No binding).
Target sequence in this assay (Q05655 whole entry, looked up): as the sequence (Q05655 whole entry) above
Assay [7] has the same target. The assay is described as follows: Inhibition of [3H]-PDBu binding to PKC delta mutant Leu 24-Gly (No binding).
Target sequence in this assay (Q05655 whole entry, looked up): as the sequence (Q05655 whole entry) above
The target is the same in assay [8]. The assay is described as follows: Inhibition of [3H]-PDBu binding to PKC delta mutant Gln 27-Val.
Target sequence in this assay (Q05655 whole entry, looked up): as the sequence (Q05655 whole entry) above
For assay [9] the target is unchanged. The assay is described as follows: Inhibition of [3H]PDBu binding to PKC delta mutant Pro 11-Gly.
Target sequence in this assay (Q05655 whole entry, looked up): as the sequence (Q05655 whole entry) above
The target is the same in assay [10]. The assay is described as follows: Inhibition of [3H]PDBu binding to PKC delta wild type.
Target sequence in this assay (Q05655 whole entry): as the sequence (Q05655 whole entry) above
Assay [11] has the same target. The assay is described as follows: Inhibition of [3H]PDBu binding to PKC delta mutant Leu 20-Gly.
Target sequence in this assay (Q05655 whole entry, looked up): as the sequence (Q05655 whole entry) above

Chain of Protein kinase C beta type (P05771 whole entry): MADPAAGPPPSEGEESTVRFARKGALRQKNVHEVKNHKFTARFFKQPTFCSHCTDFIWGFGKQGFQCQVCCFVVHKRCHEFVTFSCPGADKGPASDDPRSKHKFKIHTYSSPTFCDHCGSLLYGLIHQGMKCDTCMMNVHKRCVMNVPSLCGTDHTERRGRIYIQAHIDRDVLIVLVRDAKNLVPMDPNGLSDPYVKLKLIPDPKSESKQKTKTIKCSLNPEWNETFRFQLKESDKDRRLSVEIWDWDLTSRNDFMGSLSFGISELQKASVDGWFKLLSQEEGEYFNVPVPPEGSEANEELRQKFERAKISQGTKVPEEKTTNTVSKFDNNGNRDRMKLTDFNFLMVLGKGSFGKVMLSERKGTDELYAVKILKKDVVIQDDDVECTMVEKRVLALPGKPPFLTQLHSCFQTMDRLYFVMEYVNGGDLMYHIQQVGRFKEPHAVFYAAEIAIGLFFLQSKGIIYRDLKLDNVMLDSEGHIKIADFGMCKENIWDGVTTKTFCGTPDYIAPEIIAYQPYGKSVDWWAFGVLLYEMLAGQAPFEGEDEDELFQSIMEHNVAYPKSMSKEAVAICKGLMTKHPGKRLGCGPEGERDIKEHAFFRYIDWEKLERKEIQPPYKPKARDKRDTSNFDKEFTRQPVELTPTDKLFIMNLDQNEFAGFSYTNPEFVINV

The Ki is the equilibrium dissociation constant of an inhibitor or competing ligand from its target. Consider `CC(C)[C@H]1C(=O)N[C@H](CO)Cc2ccccc2N1C`, for which, in [1], the Ki is 334 nM.
For `CCCCCCCCCCc1ccc2c(c1)C[C@@H](CO)NC(=O)[C@H](C(C)C)N2C`, the Ki in assay [1] turned out to be 46.6 nM; in [2], 142 nM; in assay [3] it was 187 nM; in [4], 122 nM.
With `CC(C)[C@H]1C(=O)N[C@H](CO)Cc2c[nH]c3cccc(c23)N1C` [INDOLACTUM], the Ki stood at 6.1 nM in assay [5], 8.2 nM in assay [2], 21.9 nM in assay [3] and 19.4 nM in assay [4].
Turning to `CCCCCCCCc1ccc2c3c(c[nH]c13)C[C@@H](CO)NC(=O)[C@H](C(C)C)N2C`, the Ki in assay [1] stood at 0.5 nM; in [5], 0.4 nM; in [2] it was 0.8 nM; in assay [3] it was 1 nM; in [4], 1.2 nM.
Turning to `CCCC(=O)O[C@@H]1[C@@H](C)[C@@]2(O)[C@@H](C=C(CO)C[C@]3(O)C(=O)C(C)=C[C@@H]23)[C@@H]2C(C)(C)[C@]12OC(=O)CCC`, the Ki entry in assay [6] and in assay [7] was “Not Active” in each case.
Regarding `CCCCCCCCC#Cc1ccc2c(c1)C[C@@H](CO)NC(=O)[C@H](C(C)C)N2C`, the Ki was 933 nM in assay [8]; 14.7 nM in assay [1]; 730 nM in assay [9]; 17.4 nM in assay [5]; 122 nM in [2]; 142 nM in [3]. The Ki is 10.7 nM in assay [10], 134 nM in [11] and 40.7 nM in [4].
